Experimental data published in publication PMC4362054, “C-5’-Triazolyl-2’-oxa-3’-aza-4’a-carbanucleosides: Synthesis and biological evaluation” (Beilstein Journal of Organic Chemistry, 2015).

Assays:
[1] = Inhibition of cell proliferation (MTT method), BS-C-1 cells; format: cell-based; details: African green monkey, BS-C-1 cells (African green monkey kidney), concentration which inhibited cell growth by 50% vs control cultures, mean of three assays
[2] = Inhibition of cell proliferation (MTT method), Vero cells; format: cell-based; details: African green monkey, Vero cells (African green monkey kidney), concentration which inhibited cell growth by 50% vs control cultures, mean of three assays
[3] = Inhibition of cell proliferation (MTT method), HFF cells; format: cell-based, human; details: human, HFF cells (human foreskin fibroblasts), concentration which inhibited cell growth by 50% vs control cultures, mean of three assays
[4] = Inhibition of cell proliferation (MTT method), MDCK cells; format: cell-based; details: dog, MDCK cells (Madin-Darby canine kidney), concentration which inhibited cell growth by 50% vs control cultures, mean of three assays
HEp-2 cells = test: Inhibition of cell proliferation (MTT method), HEp-2 cells; format: cell-based, human; details: concentration which inhibited cell growth by 50% vs control cultures, mean of three assays, read-out: CC50 HEp2
HFF cells = test: Inhibition of cell proliferation (MTT method), HFF cells; format: cell-based, human; details: concentration which inhibited cell growth by 50% vs control cultures, mean of three assays
[5] = Inhibition of cell proliferation (MTT method), HEp-2 cells; format: cell-based, human; details: human, HEp-2 cells (human epidermoid carcinoma larynx), concentration which inhibited cell growth by 50% vs control cultures, mean of three assays, read-out: CC50 HEp2
[6] = statement in words; reference not given; cited from earlier work
[7] = statement in words; reference not given; cited from earlier work; remark: listed apart in the source

Compound	melting point	CC50 [1]	CC50 [2]	CC50 [3]	CC50 [4]	CC50 (HEp-2 cells)	CC50 (HFF cells)	CC50 [5]	cytotoxicity [6]	antiviral activity [7]
COc1ccc(-c2cn(C[C@H]3C[C@@H](n4cc(C)c(=O)[nH]c4=O)ON3C)nn2)cc1 [13e]	215 to 218 °C	20 µM	20 µM		20 µM	40 µM	5 µM			
Cc1cn([C@@H]2C[C@H](Cn3cc(CO)nn3)N(C)O2)c(=O)[nH]c1=O [13b]	205 to 210 °C	30 µM	40 µM	30 µM	30 µM	40 µM				
Cc1cn([C@@H]2C[C@H](Cn3cc(-c4ccc(F)cc4)nn3)N(C)O2)c(=O)[nH]c1=O [13f]	269 to 271 °C	10 µM	10 µM	40 µM	10 µM	40 µM				
CCCCCc1ccc(-c2cn(C[C@H]3C[C@@H](n4cc(C)c(=O)[nH]c4=O)ON3C)nn2)cc1 [13g]	259 to 260 °C	10 µM	10 µM		10 µM		5 µM	20 µM		
Cc1cn([C@@H]2C[C@H](Cn3cc(CCO)nn3)N(C)O2)c(=O)[nH]c1=O [13a]	215 to 218 °C	10 µM	10 µM	10 µM	10 µM	40 µM				
Cc1cn([C@@H]2C[C@H](Cn3cc(-c4ccccc4)nn3)N(C)O2)c(=O)[nH]c1=O [13d]	268 to 272 °C	20 µM	20 µM		20 µM		5 µM	20 µM		
CCCc1cn(C[C@H]2C[C@@H](n3cc(C)c(=O)[nH]c3=O)ON2C)nn1 [13c]	132 to 137 °C	20 µM	20 µM		20 µM	40 µM	5 µM			
Cc1cn([C@@H]2C[C@H](CO)N(C)O2)c(=O)[nH]c1=O [compound 8, (3′RS,5′SR)-2′-N-methyl-3′-hydroxymethyl-1′,2′-isoxazolidin-5′-ylthymine]									do not show any cytotoxicity	endowed with antiviral activity

Second part, led by results:

melting point	Compound	CC50 [1]	CC50 [2]	CC50 [3]	CC50 [4]	CC50 (HEp-2 cells)	CC50 (HFF cells)	CC50 [5]	cytotoxicity [6]	antiviral activity [7]
198 to 201 °C	Cc1cn([C@H]2C[C@H](Cn3cc(CO)nn3)N(C)O2)c(=O)[nH]c1=O [14b]	10 µM	20 µM	20 µM	20 µM	40 µM				
202 to 206 °C	Cc1cn([C@H]2C[C@H](Cn3cc(CCO)nn3)N(C)O2)c(=O)[nH]c1=O [14a]	20 µM	20 µM	20 µM	20 µM	40 µM				
230 to 233 °C	Cc1cn([C@H]2C[C@H](Cn3cc(-c4ccc(F)cc4)nn3)N(C)O2)c(=O)[nH]c1=O [14f]	20 µM	20 µM		20 µM	40 µM	5 µM			
233 to 235 °C	Cc1cn([C@H]2C[C@H](Cn3cc(-c4ccccc4)nn3)N(C)O2)c(=O)[nH]c1=O [14d]	5 µM	5 µM		5 µM		5 µM	5 µM		
245 to 248 °C	CCCCCc1ccc(-c2cn(C[C@H]3C[C@H](n4cc(C)c(=O)[nH]c4=O)ON3C)nn2)cc1 [14g]	10 µM	10 µM		10 µM		5 µM	20 µM		
168 to 170 °C	CCCc1cn(C[C@H]2C[C@H](n3cc(C)c(=O)[nH]c3=O)ON2C)nn1 [14c]	20 µM	20 µM		20 µM	40 µM	5 µM			
202 to 205 °C	COc1ccc(-c2cn(C[C@H]3C[C@H](n4cc(C)c(=O)[nH]c4=O)ON3C)nn2)cc1 [14e]	20 µM	20 µM		20 µM	40 µM	5 µM			
